Literature values, collected in patent US12247053B2 (priority 2018, dated 2025).

Tested on: American isolates of H3N2

| Structure (SMILES) | measured resistance |
| --- | --- |
| NC12CC3CC(CC(C3)C1)C2 [amantadine] | 91% |
| CC(N)C12CC3CC(CC(C3)C1)C2 (centres unmarked) [rimantadine] | 91% |
